{
  "source": "patent US11844844B2",
  "about": "“Fusion protein comprising glutathione-s-transferase and protein having binding affinity target cell or target protein, and use thereof” (UNIST(ULSAN NATIONAL INSTITUTE OF SCIENCE AND TECHNOLOGY), priority 2017, dated 2023)",
  "system": "RAW 264.7 cells",
  "assay": "Cytotoxicity against macrophage, alamar blue",
  "assay_type": "cell-based",
  "conditions": "CPT 0.01 to 2.5 μg/ml, 48 hr; PCSNs stored in 55% FBS 1 hr",
  "experimental": "In detail, CPT-loaded HER2-PCSNs were prepared and stored in a high concentration of serum protein environment of 55% FBS for 1 hr. Thereafter, the stored HER2-PCSNs were collected and washed, and then treated to RAW 264.7 cells at a CPT concentration of 0.01 μg/ml, 0.1 μg/ml, 0.25 μg/ml, 0.5 μg/ml, 1.0 μg/ml, or 2.5 μg/ml, followed by incubation for 48 hr. After completing incubation, cell viability was examined using an alamar blue dye. As a control for comparison of the cell killing effect, RAW 264.7 cells were treated with free CPT which was not loaded in nanoparticles, and cell viability thereof was examined.",
  "data": [
    {"smiles": "CC[C@@]1(O)C(=O)OCc2c1cc1n(c2=O)Cc2cc3ccccc3nc2-1", "note": "[free CPT, camptothecin]", "values": [
      {"measurement": "cell killing effect on macrophages (cell viability)", "result": "exhibited the cell killing effect on RAW 264.7 cells with increasing treatment concentrations"}
    ]}
  ]
}
